Assay results as given in patent publication US4801610A, “Phenolic ester derivatives as elastase inhibitors” (G. D. Searle & Co., priority 1987, dated 1989).

Target: T1, Human Leukocyte Elastase (HLE) (Homo sapiens, UniProt P08246)
T1 sequence (P08246 30-247 limits assumed): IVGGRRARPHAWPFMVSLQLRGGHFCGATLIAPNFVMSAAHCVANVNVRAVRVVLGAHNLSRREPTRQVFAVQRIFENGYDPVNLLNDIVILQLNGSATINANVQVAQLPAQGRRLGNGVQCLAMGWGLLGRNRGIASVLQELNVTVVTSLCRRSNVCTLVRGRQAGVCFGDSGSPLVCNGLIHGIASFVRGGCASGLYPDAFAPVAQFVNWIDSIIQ
Experiment: Inhibition of Human Leukocyte Elastase (HLE), hydrolysis of Methoxysuccinyl-Ala-Ala-Pro-Val-nitroanilide
Type: biochemical
Conditions: tris-HCl buffer pH 8.0, absorption at 410 nm, read-out: Inhibition of Elastase IC50, [Molar]
Experimental: Several biochemical and animal model tests can be used to examine the ability of the derivatives of the invention to prevent or alleviate the harmful biological action of elastase. The biochemical assays permit direct measurement of drug controlled inhibition of elastase fragmentation of proteins. […] In these tests, protease reaction with the substrate is measured in the presence and absence of the drug to be tested. Inhibition of protease action is indicated by a decrease in the amount of substrated fragmented. The basic parameters for such biochemical assays have been reported in the literature: J. Biol. Chem., 255, 5435 (1980); Biochem. Biophys Acta., 268, 257 (1973); Anal. Biochem. 48,9 (1972); and Biochemistry, 20, 3675 (1981). EXAMPLE 42 Inhibition of Human Leukocyte Elastase (HLE) This test measures the rate of hydrolysis of Methoxysuccinyl-[…]-nitroanilide by HLE in the presence and absence of the compound to be tested. The procedure used is as follows. […] The test hydrolysis solution was then prepared by adding 850 microliters buffer, 50 microliters derivative solution, 50 microliters peptide solution and 50 microliters of HLE solution to a 1 cm. semi-micro cuvette. The cuvette was capped, slightly shaken and placed in the light chamber of a recording colorimeter where the increase in absorption at 410 nm. due to liberated nitroaniline was measured. Using this procedure, the one minute change in absorption of the test sample containing derivative was compared to the change in absorption in the absence of derivative. A 20% or more decrease in the rate of absorption was interpreted as a positive inhibition.

SMILES | IC50 [µM]
CC(C)(C)C(=O)Oc1ccc(C(=O)c2ccccc2)cc1 [Example 1, 4-pivaloyloxybenzophenone] | 0.62
CC(C)(C)C(=O)Oc1ccc(C(=O)c2ccc(OC(=O)C(C)(C)C)cc2)cc1 [Example 1a, 4,4'-dipivaloyloxybenzophenone] | 0.06
CC(C)(C)C(=O)Oc1ccc(C(=O)c2ccc(OC(=O)C(C)(C)C)cc2OC(=O)C(C)(C)C)cc1 [Example 2, 2,4,4'-tripivaloyloxybenzophenone] | 0.055
CC(C)(C)C(=O)Oc1ccc(C(=O)c2ccc(Cl)cc2)cc1 [Example 6, 4-pivaloyloxy-4'-chlorobenzophenone] | 0.29
CCCC(C)(C)C(=O)Oc1ccc(C(=O)c2ccc(OC(=O)C(C)(C)CCC)cc2)cc1 [Example 7, 4,4'-α,α-dimethylvaleroyloxybenzophenone] | 0.67
CC(C)(C)C(=O)Oc1cc(C(=O)c2ccc(OC(=O)C(C)(C)C)c(OC(=O)C(C)(C)C)c2OC(=O)C(C)(C)C)cc(OC(=O)C(C)(C)C)c1OC(=O)C(C)(C)C [Example 9, 3,4,5,4',5',6',-hexapivaloyloxybenzophenone] | 0.36
CC(C)(C)C(=O)Oc1ccc(C(=O)c2ccccc2)c(OC(=O)C(C)(C)C)c1 [Example 13, 2,4-dipivaloyloxybenzophenone] | 0.084
CC(C)(C)OC(=O)Oc1ccc(C(=O)c2ccc(OC(=O)OC(C)(C)C)cc2)cc1 [Example 14, 4,4'-di(t-butyloxycarbonyloxy)benzophenone] | 0.9
CC(C)(C)C(=O)Oc1ccc(Oc2ccc(OC(=O)C(C)(C)C)cc2)cc1 [Example 16, 4,4'-dipivaloyloxydiphenylether] | 0.46
C=C(C)Cc1cc(C(=O)c2ccccc2)ccc1OC(=O)C(C)(C)C [Example 25, 3-methallyl-4-pivaloyloxybenzophenone] | 0.085
C=CCc1cc(C(=O)c2ccccc2)ccc1OC(=O)C(C)(C)C [Example 26, 3-allyl-4-pivaloyloxybenzophenone] | 0.8
C=CC(C)c1cc(C(=O)c2ccccc2)ccc1OC(=O)C(C)(C)C (stereo not shown) [Example 27, 3-(1-methyl-allyl)-4-pivaloyloxybenzophenone] | 0.32
CC(C)(C)C(=O)Oc1ccc(C(=O)c2ccccc2)cc1CCCO [Example 29, 3-(3-hydroxyoropyl)-4-pivaloyloxybenzophenone] | 0.35
CC(C)C(=O)Oc1ccc(C(=O)c2ccccc2)cc1 [Example 34, 4-isobutyryloxybenzophenone] | 0.25
CC(C)(C)C(=O)Oc1ccc(Cc2ccc(OC(=O)C(C)(C)C)cc2)cc1 [Example 39, 4,4'-dipivaloyloxydiphenylmethane] | 0.45
CC(C)C(=O)Oc1ccc(C(=O)c2ccc(OC(=O)C(C)C)cc2)cc1 [Example 40, 4,4'-diisobutyryloxybenzophenone] | 0.15
